From US20260297060A1, “COMPOUNDS FOR THE DEGRADATION OF MUTANT BRAF” (C4 THERAPEUTICS, INC., priority 2023, published 2026)
Like-named read-outs stand apart in the source and are kept apart here.

Experiments:
A375-NRAS^Q61K cells = test: CTGlo Cell Viability Assay, A375-NRAS^Q61K (A375.11) cells, 96 hours; assay type: cell-based, human; conditions: A375.11 (A375-NRAS^Q61K) cells; for CTGlo A375.11 96 hours Emax / Emax: lowest % viability achieved; for Emax: Homo sapiens, 96 h
Protocol: Compounds of this invention were tested for their effect on the viability of A375-NRAS^Q61K cells by quantification of ATP using the CellTiter-Glo® 2.0 Cell Viability Assay (Catalog No. G9243, Promega, Madison, WI, USA). This assay produces a luminescent signal in the presence of ATP, which is indicative of metabolically active cells, making the luminescence readout proportional to the number of viable cells.
A375-NRAS^Q61K cells (harboring BRAF homozygous V600E mutation and NRAS homozygous Q61K mutation) were purchased from ATCC (Catalog No. CRL-1619IG-2, Manassas, VA, USA). A375-NRAS^Q61K cells (also referred to here as A375.11) were maintained at 37° C. in an atmosphere of 5% CO2 in Dulbecco's modified Eagle Medium (DMEM) with high glucose (Catalog No. 11965092), supplemented with 10% fetal bovine serum (FBS; Catalog No. 10437036), and 10 mM HEPES (Catalog No. 15630130), all obtained from Thermofisher Scientific (Waltham, MA, USA). Cell culture flasks and 384-well microplates were acquired from VWR (Radnor, PA, USA).
Test compounds were prepared by dissolving neat compounds in DMSO (Catalog No. D8418, Sigma-Aldrich, Inc., St. Louis, MO, USA) to generate 10 mM stock solutions, which were serially diluted (half log) in DMSO to generate an 11-point dose series (1000× final treatment concentration) in a 384-Well Low Dead Volume Microplate (Catalog No. LP-0200, Labcyte, San Jose, CA, USA). Using the Echo 550 Acoustic Liquid Handler (Labcyte), 50 nL of serially diluted compound solutions were dispensed in duplicate to 384-well TC-treated microplates (Catalog No. 3571, Corning, Glendale, CA, USA) and 50 nL of DMSO was dispensed to control wells. A375-NRAS^Q61K cells were resuspended in growth media and added to 384-well plates containing a […] of compounds in duplicate (maximum 10 μM concentration for final treatment) at a density of 250 cells/well in 50 μl. Cells were also plated to a 384-well plate with no compound treatment, to which CellTiter-Glo® reagent was added and luminescence was read right after plating to act as a baseline signal at time of plating (To). Plates treated with compound were then spun briefly, and cells were incubated with compound at 37° C. for 96 hours.
After 96 hours compound treatment, CellTiter-Glo® reagent was added to the cells at 25 μl per well and luminescence was read out on the PHERAstar plate reader (BMG Labtech, Ortenberg, Germany). Cells treated with DMSO only (no test compound treatment) were used as the negative control (N). DMSO treated cells with no CellTiter-Glo® reagent added were used as the background or positive control (P). Viability was determined by subtracting out the average background signal (P) and normalized to the average untreated signal (N) set at 100%.
Data were analyzed with a 4-parameter logistic fit to generate sigmoidal dose-response curves. The half-maximal inhibition of cell growth (GI50) is the concentration at which the fitted curve crosses 50%. The Emax, or maximum effect of each compound, represents the lowest % viability achieved following compound treatment.

BRAF V600E = biological target: T1, BRAF V600E (Homo sapiens, UniProt P15056+Q96SW2, V600E); test: BRAF V600E HiBiT Degradation Assay; assay type: cell-based; conditions: A375.10 cells, BRAF V600E
T1 construct: knock-in of the HiBiT tag to the endogenous BRAF V600E locus; host or cells: A375.10 (A375 clonal line, CRISPR HiBiT knock-in at the endogenous BRAF V600E locus)
T1 sequence (P15056 whole entry V600E): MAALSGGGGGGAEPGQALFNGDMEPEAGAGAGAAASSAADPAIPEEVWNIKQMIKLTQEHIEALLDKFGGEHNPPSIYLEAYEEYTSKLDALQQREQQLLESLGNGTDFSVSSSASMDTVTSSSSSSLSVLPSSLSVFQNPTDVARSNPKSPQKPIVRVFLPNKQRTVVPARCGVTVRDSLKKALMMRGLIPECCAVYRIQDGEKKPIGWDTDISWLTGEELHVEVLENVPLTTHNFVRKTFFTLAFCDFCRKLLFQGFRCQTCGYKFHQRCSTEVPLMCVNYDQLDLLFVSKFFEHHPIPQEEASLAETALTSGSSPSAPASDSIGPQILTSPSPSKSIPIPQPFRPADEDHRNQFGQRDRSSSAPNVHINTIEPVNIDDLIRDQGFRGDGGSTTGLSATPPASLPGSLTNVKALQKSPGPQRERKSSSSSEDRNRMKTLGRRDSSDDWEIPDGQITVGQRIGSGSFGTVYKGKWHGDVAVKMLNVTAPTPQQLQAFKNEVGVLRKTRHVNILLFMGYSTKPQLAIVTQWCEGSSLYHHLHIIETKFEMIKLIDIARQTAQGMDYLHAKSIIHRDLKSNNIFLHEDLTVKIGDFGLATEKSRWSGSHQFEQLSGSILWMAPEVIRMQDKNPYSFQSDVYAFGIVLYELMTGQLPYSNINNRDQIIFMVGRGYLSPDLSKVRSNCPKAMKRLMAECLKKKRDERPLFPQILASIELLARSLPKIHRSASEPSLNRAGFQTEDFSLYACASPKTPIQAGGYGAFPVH
T1 sequence (Q96SW2 whole entry): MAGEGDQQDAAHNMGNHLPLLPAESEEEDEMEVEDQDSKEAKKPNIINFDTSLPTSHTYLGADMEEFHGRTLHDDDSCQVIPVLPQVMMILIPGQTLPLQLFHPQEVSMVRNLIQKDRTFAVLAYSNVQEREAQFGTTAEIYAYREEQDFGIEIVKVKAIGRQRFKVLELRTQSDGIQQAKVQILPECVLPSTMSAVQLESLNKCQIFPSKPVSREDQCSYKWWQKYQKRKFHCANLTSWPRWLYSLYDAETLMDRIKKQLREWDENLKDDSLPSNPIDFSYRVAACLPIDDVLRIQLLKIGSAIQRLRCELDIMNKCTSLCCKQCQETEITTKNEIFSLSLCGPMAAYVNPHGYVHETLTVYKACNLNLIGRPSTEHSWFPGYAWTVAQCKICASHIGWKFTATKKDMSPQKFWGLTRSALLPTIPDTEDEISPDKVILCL
T1 sequence (Q16531 whole entry partner): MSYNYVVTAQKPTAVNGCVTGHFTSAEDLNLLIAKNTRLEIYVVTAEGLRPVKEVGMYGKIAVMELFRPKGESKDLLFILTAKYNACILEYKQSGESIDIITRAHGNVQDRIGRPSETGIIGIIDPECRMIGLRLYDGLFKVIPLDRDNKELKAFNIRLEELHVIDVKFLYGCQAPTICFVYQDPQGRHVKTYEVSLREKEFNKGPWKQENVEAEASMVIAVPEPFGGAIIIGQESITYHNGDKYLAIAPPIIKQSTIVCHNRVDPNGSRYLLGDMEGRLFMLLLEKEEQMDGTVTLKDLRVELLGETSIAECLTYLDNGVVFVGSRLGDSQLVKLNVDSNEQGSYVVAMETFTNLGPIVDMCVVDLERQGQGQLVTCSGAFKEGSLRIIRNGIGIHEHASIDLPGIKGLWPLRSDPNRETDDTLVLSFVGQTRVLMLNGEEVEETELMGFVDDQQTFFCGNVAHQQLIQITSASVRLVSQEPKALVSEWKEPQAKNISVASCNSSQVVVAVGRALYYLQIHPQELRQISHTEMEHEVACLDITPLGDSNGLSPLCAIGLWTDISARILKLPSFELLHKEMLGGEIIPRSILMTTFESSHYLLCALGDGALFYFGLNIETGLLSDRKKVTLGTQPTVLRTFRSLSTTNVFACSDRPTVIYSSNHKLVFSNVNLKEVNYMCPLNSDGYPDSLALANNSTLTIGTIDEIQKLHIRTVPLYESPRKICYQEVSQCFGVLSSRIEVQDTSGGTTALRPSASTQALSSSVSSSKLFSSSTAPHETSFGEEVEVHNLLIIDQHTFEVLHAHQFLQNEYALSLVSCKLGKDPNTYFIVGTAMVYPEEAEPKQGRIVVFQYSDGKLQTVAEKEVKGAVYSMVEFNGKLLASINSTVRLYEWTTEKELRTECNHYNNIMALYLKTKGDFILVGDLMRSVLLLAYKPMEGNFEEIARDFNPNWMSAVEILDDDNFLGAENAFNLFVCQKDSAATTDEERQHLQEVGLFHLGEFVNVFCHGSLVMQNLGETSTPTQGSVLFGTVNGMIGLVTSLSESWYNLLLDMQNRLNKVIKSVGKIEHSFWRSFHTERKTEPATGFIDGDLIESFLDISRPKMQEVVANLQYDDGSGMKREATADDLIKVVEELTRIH
Protocol: Compounds of this invention were tested for degradation of mutant BRAF V600E using the HiBiT assay, a luminescence-based assay for quantification of cellular protein levels using the Nano-Glo® HiBiT Lytic Detection System (Catalog No. N3050, Promega, Madison, WI USA). This assay utilizes the HiBiT tag on a protein of interest, which creates a luminescent signal in the presence of a complementing peptide and its substrate, the quantification of which is proportional to the amount of HiBiT-tagged protein in the cell.
The cell line A375, which is homozygous for the BRAF V600E mutation, was purchased from ATCC (Catalog No. CRL-1619, Manassas, VA, USA). A375 cells were engineered to express HiBiT tagged BRAF V600E by CRISPR knock-in of the HiBiT tag to the endogenous BRAF V600E locus, followed by selection of a clonal population containing the appropriate knock-in (referred to here as cell line A375.10). A375.10 cells were maintained at 37° C. in an atmosphere of 5% CO2 in Dulbecco's modified Eagle Medium (DMEM) with high glucose (Catalog No. 11965092), supplemented with 10% fetal bovine serum (FBS; Catalog No. 10437036), and 10 mM HEPES (Catalog No. 15630130), all obtained from Thermofisher Scientific (Waltham, MA, USA). Cell culture flasks and 384-well microplates were acquired from VWR (Radnor, PA, USA).
Test compounds were prepared by dissolving neat compounds in DMSO (Catalog No. D8418, Sigma-Aldrich, Inc., St. Louis, MO, USA) to generate 10 mM stock solutions, which were serially diluted (half log) in DMSO to generate an 11-point dose series (1000× final treatment concentration) in a 384-Well Low Dead Volume Microplate (Catalog No. LP-0200, Labcyte, San Jose, CA, USA). Using the Echo 550 Acoustic Liquid Handler (Labcyte), 30 nL of serially diluted compound solutions were dispensed in duplicate to 384-well TC-treated microplates (Catalog No. 3571, Corning, Glendale, CA, USA) and 30 nL of DMSO was dispensed to control wells. A375.10 cells resuspended in growth media without phenol red (Catalog No. 21063-029, Thermofisher Scientific) were then added to 384-well plates containing the 11-point dose series of compounds in duplicate (maximum 10 μM concentration for final treatment) at a density of 12,000 cells/well in 30 μl. Plates were then spun briefly, and cells were incubated with compound at 37° C. for 2 hours, 6 hours, or 24 hours.
Following the appropriate treatment time, Nano-Glo® HiBiT Lytic Assay reagents were added to the cells per the manufacturer's instructions by adding 30 μl of reagent per well, and the luminescence signal was acquired by plate reader. Cells treated with DMSO only (no test compound treatment) were used as the negative control (N). Media only (no cells added) with Nano-Glo reagent addition was used as the background or positive control (P). The percent response of compound treated samples were calculated by subtracting out the background signal (P) and normalizing to the DMSO control (N) as follows.
% Response=100×(Treated Signal−Average (P))/(Average (N)−Average (P)).
Data were analyzed with a 4-parameter logistic fit to generate sigmoidal dose-response curves. The DC50 is the concentration of compound at which 50% of the cellular BRAF V600E has been degraded. The Emax, or maximum effect of each compound, represents the amount of residual protein remaining in the cell following compound treatment. The IP, or inflection point of the dose-response curve, is the concentration of compound at which 50% of the observed degradation response is achieved.
The experiment was conducted at least once for each compound. If the experiment was conducted multiple times, the data shown in the table is the average of the two or more experiments.

[1] = 2 hours, inflection point, read-out: HiBiT-Degradation A375.10 BRAF 2 hours IP
[2] = 2 hours, read-out: HiBiT-Degradation A375.10 BRAF 2 hours DC50
[3] = 2 hours, residual protein remaining
[4] = 6 hours, inflection point, read-out: HiBiT-Degradation A375.10 BRAF 6 hours IP
[5] = 6 hours, read-out: HiBiT-Degradation A375.10 BRAF 6 hours DC50
[6] = HiBiT, 24 hours, read-out: HiBiT-Degradation A375.10 BRAF 24 hours DC50
[7] = HiBiT, 24 hours, read-out: HiBiT-Degradation A375.10 BRAF 24 hours IP
[8] = 6 hours, residual protein remaining, read-out: HiBiT-Degradation A375.10 BRAF 6 hours Emax
[9] = HiBiT, 24 hours, read-out: HiBiT-Degradation A375.10 BRAF 24 hours Emax
[10] = 2 hours, residual protein remaining, read-out: HiBiT-Degradation A375.10 BRAF 2 hours Emax

Q: Which results are given for CCN(C)S(=O)(=O)Nc1ccc(F)c(Oc2ccc3ncn(C4CC5(CCN(C6CCC(c7ccc(NC8CCC(=O)NC8=O)cc7F)CC6)CC5)C4)c(=O)c3c2)c1C#N (single isomer, unassigned) [Compound 7, 6-[2-cyano-3-[[ethyl(methyl)sulfamoyl]amino]-6-fluoro-phenoxy]-3-[7-[4-[4-[(2,6-dioxo-3-piperidyl)amino]-2-fluoro-phenyl]cyclohexyl]-7-azaspiro[3.5]nonan-2-yl]-4-oxo-quinazoline]?
A: GI50 (A375-NRAS^Q61K cells): < 1000 nM; CTGlo A375.11 96 hours Emax (A375-NRAS^Q61K cells): *** (<=50%); DC50 (BRAF V600E; [1]): < 1000 nM; DC50 (BRAF V600E; [2]): < 1000 nM; HiBiT-Degradation A375.10 BRAF 2 hours Emax (BRAF V600E; [3]): *** (<=50%); DC50 (BRAF V600E; [4]): < 1000 nM; DC50 (BRAF V600E; [5]): < 1000 nM; HiBiT-Degradation A375.10 BRAF 6 hours Emax (BRAF V600E; 6 hours, residual protein remaining): *** (<=50%); HiBiT-Degradation A375.10 BRAF 24 hours Emax (BRAF V600E; HiBiT, 24 hours): *** (<=50%); DC50 (BRAF V600E; [6]): < 1000 nM; DC50 (BRAF V600E; [7]): < 1000 nM

Q: What does the source list for CCN(C)S(=O)(=O)Nc1ccc(F)c(Oc2ccc3ncn(C4CC5(CCN(C6CCC(c7cc8c(cc7F)c(N7CCC(=O)NC7=O)nn8C)CC6)CC5)C4)c(=O)c3c2)c1C#N (single isomer, unassigned) [Compound 9, 6-[2-cyano-3-[[ethyl(methyl)sulfamoyl]amino]-6-fluoro-phenoxy]-3-[7-[4-[3-(2,4-dioxohexahydropyrimidin-1-yl)-5-fluoro-1-methyl-indazol-6-yl]cyclohexyl]-7-azaspiro[3.5]nonan-2-yl]-4-oxo-quinazoline]?
A: GI50 (A375-NRAS^Q61K cells): < 1000 nM; CTGlo A375.11 96 hours Emax (A375-NRAS^Q61K cells): *** (<=50%); DC50 (BRAF V600E; [1]): < 1000 nM; DC50 (BRAF V600E; [2]): < 1000 nM; HiBiT-Degradation A375.10 BRAF 2 hours Emax (BRAF V600E; [3]): *** (<=50%); DC50 (BRAF V600E; [4]): < 1000 nM; DC50 (BRAF V600E; [5]): < 1000 nM; Emax (BRAF V600E; [8]): < 50%; DC50 (BRAF V600E; [6]): < 1000 nM; Emax (BRAF V600E; [9]): < 50%; DC50 (BRAF V600E; [7]): < 1000 nM

Q: Which results are given for CCN(C)S(=O)(=O)Nc1ccc(F)c(Oc2ccc3ncn(C4CCC5(CC4)CCN(C4CCC(c6ccc(NC7CCC(=O)NC7=O)cc6F)CC4)CC5)c(=O)c3c2)c1C#N (single isomer, unassigned) [Compound 10, 9-[6-[2-cyano-3-[[ethyl(methyl)sulfamoyl]amino]-6-fluoro-phenoxy]-4-oxo-quinazolin-3-yl]-3-[4-[4-[(2,6-dioxo-3-piperidyl)amino]-2-fluoro-phenyl]cyclohexyl]-3-azaspiro[5.5]undecane]?
A: GI50 (A375-NRAS^Q61K cells): 1000 to 10000 nM; CTGlo A375.11 96 hours Emax (A375-NRAS^Q61K cells): *** (<=50%); DC50 (BRAF V600E; [1]): < 1000 nM; DC50 (BRAF V600E; [2]): > 10000 nM; Emax (BRAF V600E; [10]): 50 to 90%

Q: CCN(C)S(=O)(=O)Nc1ccc(F)c(Oc2ccc3ncn(C4CCC5(CC4)CCN(C4CCC(c6ccc(NC7CCC(=O)NC7=O)cc6F)CC4)CC5)c(=O)c3c2)c1C#N (single isomer, unassigned) [Compound 11, 9-[6-[2-cyano-3-[[ethyl(methyl)sulfamoyl]amino]-6-fluoro-phenoxy]-4-oxo-quinazolin-3-yl]-3-[4-[4-[(2,6-dioxo-3-piperidyl)amino]-2-fluoro-phenyl]cyclohexyl]-3-azaspiro[5.5]undecane] was tested. Which GI50 (A375-NRAS^Q61K cells) did it give?
A: > 10000 nM

Q: And the Emax (A375-NRAS^Q61K cells)?
A: 50 to 90%

Q: What about the DC50 (BRAF V600E; [1]) of the same molecule?
A: < 1000 nM

Q: What about the DC50 (BRAF V600E; [2]) of the same molecule?
A: < 1000 nM

Q: What about the “HiBiT-Degradation A375.10 BRAF 2 hours Emax” value (BRAF V600E; [3]) of the same molecule?
A: *** (<=50%)

Q: For CCN(C)S(=O)(=O)Nc1ccc(F)c(Oc2ccc3ncn(C4CCC5(CC4)CCN(C4CCC(c6cc7c(cc6F)c(N6CCC(=O)NC6=O)nn7C)CC4)CC5)c(=O)c3c2)c1C#N (single isomer, unassigned) [Compound 12], which GI50 (A375-NRAS^Q61K cells) is on record?
A: < 1000 nM

Q: And the Emax (A375-NRAS^Q61K cells)?
A: < 50%

Q: What about the DC50 (BRAF V600E; [1]) of the same molecule?
A: < 1000 nM

Q: What about the DC50 (BRAF V600E; [2]) of the same molecule?
A: < 1000 nM

Q: What about the Emax (BRAF V600E; [10]) of the same molecule?
A: < 50%

Q: CCN(C)S(=O)(=O)Nc1ccc(F)c(Nc2ccc3ncn([C@H]4COC5(CCN(C6CCC(c7ccc(NC8CCC(=O)NC8=O)cc7F)CC6)CC5)C4)c(=O)c3c2F)c1C#N (single isomer, unassigned) [Compound 98] was tested. Which DC50 (BRAF V600E; [4]) did it give?
A: < 1000 nM

Q: What about the DC50 (BRAF V600E; [5]) of the same molecule?
A: < 1000 nM

Q: And the Emax (BRAF V600E; [8])?
A: < 50%

Q: What about the DC50 (BRAF V600E; [6]) of the same molecule?
A: < 1000 nM

Q: What about the Emax (BRAF V600E; [9]) of the same molecule?
A: < 50%

Q: And the DC50 (BRAF V600E; [7])?
A: < 1000 nM
